# pIC50: −log10 of the molar value.
# Tested on: PCSK9
# Assay: PCSK9 secretion assay in HepG2 cells (PCSK9 ELISA)
# Assay type: cell-based
# Details: HepG2 cells, 16 hours incubation, at least 6 concentrations
# Procedure: HepG2 cells (from ATCC, Catalog no. HB-8065) were maintained in DMEM (Invitrogen) supplemented with 10% fetal bovine serum (Invitrogen). The day prior to the PCSK9 assay, cells are seeded in 96-well collagen coated plates at 25,000 cells/well.
# The compounds of the invention were stored at −20° C. until used. The test article compound was dissolved in 100% ethanol to a 50 mM stock solution. This was then diluted in FBS to a final concentration of 1 mM. This solution was placed in a sonicating water bath for 30 minutes. Subsequent dilutions were then made in FBS supplemented with an equivalent volume of ethanol and mixed by vortexing.
# HepG2 cells were seeded onto a collagen coated 96-well plate (Becton Dickinson, Catalog no. 35-4407) the day prior to the assay, as described above. The next day, the cell medium was removed, washed once with 100 μL serum free DMEM to remove any residual PCSK9, and replaced with 90 μL of serum free DMEM. Ten microliters of each compound concentration prepared in FBS was then added. Each concentration of compound was tested in triplicate. The compound was incubated with the cells overnight for 16 hours. Following this incubation, 10 μL of AlamarBlue was added to each well and cells incubated for another 2 hours. The plates were then removed and AlamarBlue fluorescence was measured (excitation, 550 nm and […]) to assess cell viability. Cell culture supernatant was then diluted […] 1×RDSP Calibrator Diluent and PCSK9 ELISA was then performed with 50 μL of this diluted sample, as per the manufacturer's instructions. The ELISA was measured on a Victor X5 multilabel plate reader (PerkinElmer) at an absorbance of 450 nm with background correction measured at 550 nm (The PCSK9 Elisa kits can be purchased from R&D System, Catalog no. DPC900).
# Alternatively, an IC50 could also be obtained when this type of assay was carried out using at least 6 different concentrations of the test compounds. Table 1 lists the IC50 values for the compounds tested in this assay.
row,SMILES,pIC50
1,"CC/C=C\C/C=C\C/C=C\C/C=C\C/C=C\CCCC(=O)NCC1CCN(C(=O)c2cccnc2)CC1 [Compound I-29, (5Z,8Z,11Z,14Z,17Z)—N-((1-nicotinoylpiperidin-4-yl)methyl)icosa-5,8,11,14,17-pentaenamide]",> 4.60
2,"CC/C=C\C/C=C\C/C=C\C/C=C\C/C=C\CCCC(=O)NCCNC(=O)c1cccnc1C [VI-6, N-(2-((5Z,8Z,11Z,14Z,17Z)-icosa-5,8,11,14,17-pentaenamido)ethyl)-2-methylnicotinamide]",4.30 to 4.60
3,"CC/C=C\C/C=C\C/C=C\C/C=C\C/C=C\CCCC(=O)N1CC[C@H](NC(=O)C2=CC(=O)C(C)(c3ccccc3)O2)C1 (stereo partly drawn) [VII-4, N—((S)-1-((5Z,8Z,11Z,14Z,17Z)-icosa-5,8,11,14,17-pentaenoyl)pyrrolidin-3-yl)-5-methyl-4-oxo-5-phenyl-4,5-dihydrofuran-2-carboxamide]",> 4.60
4,"CC/C=C\C/C=C\C/C=C\C/C=C\C/C=C\CCCC(=O)N1CCN(C(=O)c2cccnc2)CC1 [Compound I-13, (5Z,8Z,11Z,14Z,17Z)-1-(4-nicotinoylpiperazin-1-yl)icosa-5,8,11,14,17-pentaen-1-one]",4.30 to 4.60
5,"CC/C=C\C/C=C\C/C=C\C/C=C\C/C=C\CCCC(=O)NCCNC(=O)c1cccnc1O [VI-3, 2-hydroxy-N-(2-((5Z,8Z,11Z,14Z,17Z)-icosa-5,8,11,14,17-pentaenamido)ethyl)nicotinamide]",< 4.30
6,"CC/C=C\C/C=C\C/C=C\C/C=C\C/C=C\CCCC(=O)N1CC[C@@H](NC(=O)C2=CC(=O)C(C)(c3ccccc3)O2)C1 (stereo partly drawn) [VII-3, N—((R)-1-((5Z,8Z,11Z,14Z,17Z)-icosa-5,8,11,14,17-pentaenoyl)pyrrolidin-3-yl)-5-methyl-4-oxo-5-phenyl-4,5-dihydrofuran-2-carboxamide]",> 4.60
7,"CC/C=C\C/C=C\C/C=C\C/C=C\C/C=C\CCCC(=O)NCCNC(=O)c1ccc(CCN2CCOCC2)nc1 [Compound V-2, N-(2-((5Z,8Z,11Z,14Z,17Z)-icosa-5,8,11,14,17-pentaenamido)ethyl)-6-(2-morpholinoethyl)nicotinamide]",4.30 to 4.60
8,"CC/C=C\C/C=C\C/C=C\C/C=C\C/C=C\CCCC(=O)N1CCC(N(C)C(=O)C2=CC(=O)C(C)(c3ccccc3)O2)CC1 (centres unmarked) [VII-7, N-(1-((5Z,8Z,11Z,14Z,17Z)-icosa-5,8,11,14,17-pentaenoyl)piperidin-4-yl)-N,5-dimethyl-4-oxo-5-phenyl-4,5-dihydrofuran-2-carboxamide]",> 4.60
9,"CC/C=C\C/C=C\C/C=C\C/C=C\C/C=C\CCCC(=O)N1CC[C@H](N(C)C(=O)c2cccnc2)C1 [Compound I-61, N—((S)-1-((5Z,8Z,11Z,14Z,17Z)-icosa-5,8,11,14,17-pentaenoyl)pyrrolidin-3-yl)-N-methylnicotinamide]",< 4.30
10,"CC/C=C\C/C=C\C/C=C\C/C=C\C/C=C\CCCC(=O)N1CC[C@@H](NC(=O)C(C)(C)Oc2ccc(C(=O)c3ccc(Cl)cc3)cc2)C1 [VII-21, 2-(4-(4-chlorobenzoyl)phenoxy)-N—((R)-1-((5Z,8Z,11Z,14Z,17Z)-icosa-5,8,11,14,17-pentaenoyl)pyrrolidin-3-yl)-2-methylpropanamide]",> 4.60
11,"CC/C=C\C/C=C\C/C=C\C/C=C\C/C=C\CCCC(=O)NCCNC(=O)c1ccncn1 [II-10, N-(2-((5Z,8Z,11Z,14Z,17Z)-icosa-5,8,11,14,17-pentaenamido)ethyl)pyrimidine-4-carboxamide]",< 4.30
12,"CC/C=C\C/C=C\C/C=C\C/C=C\C/C=C\CCCC(=O)NCC(C)(C)NC(=O)c1cccnc1 [Compound I-21, N-(1-((5Z,8Z,11Z,14Z,17Z)-icosa-5,8,11,14,17-pentaenamido)-2-methylpropan-2-yl)nicotinamide]",> 4.60
13,"CC/C=C\C/C=C\C/C=C\C/C=C\C/C=C\CCCC(=O)NCCNC(=O)c1ccccc1 [II-1, N-(2-((5Z,8Z,11Z,14Z,17Z)-icosa-5,8,11,14,17-pentaenamido)ethyl)benzamide]",4.30 to 4.60

# Same assay, conditions: HepG2 cells, at 25 and 50 μM, FIG. 1
row,SMILES,lowering of PCSK9
1,"CC/C=C\C/C=C\C/C=C\C/C=C\C/C=C\CCCC(=O)NCCNC(=O)c1ccccc1 [II-1, N-(2-((5Z,8Z,11Z,14Z,17Z)-icosa-5,8,11,14,17-pentaenamido)ethyl)benzamide]",significant lowering of PCSK9
